Measurements taken from patent US7977375B2, “Antibiotic and method of production thereof” (Helmholtz-Zentrum Für Infektionsforschung GmbH, priority 2004, dated 2011).
≈ marks a conversion by molar mass, not a printed value.

Legend:
[1] = system: MRSA 3; test: MIC / MBC in liquid culture; assay type: cell-based, Staphylococcus aureus; settings: MRSA 3
[2] = system: E. faecalis ATCC 29212; test: MIC / MBC in liquid culture; assay type: cell-based, Enterococcus faecalis
[3] = system: B. cepacia WT139; test: MIC / MBC in liquid culture; assay type: cell-based, Burkholderia cepacia
Description: 7-O-malonyl macrolactin A was not effective against some of the gram-negative bacteria tested by the inventors.

[4] = system: Candida krusei DSM 6128; test: MIC / MBC in liquid culture; assay type: cell-based; settings: Pichia kudriavzevii
[5] = system: Staphylococcus aureus (#); test: kinetics of growth at sub-MIC concentrations (FIG. 1A); assay type: cell-based; settings: S. aureus #, 1 or 4 μg/ml
Procedure: Investigation of the bacteriostatic activity of 7-O-malonyl macrolactin A required testing the effects of sub-MIC concentrations. […] 24 hours after treatment, the titre of viable cells was reduced by a factor of 100 as compared to the control without 7-O-malonyl macrolactin A.
(§1) • FIG. 1A y-axis: Log CFU (Colony Forming Units) Cells/ml • x-axis: Time (HRS) • FIG. 1B y-axis: Log CFU (Colony Forming Units) Cells/ml • x-axis: Time (HRS) • FIG. 1C: y-axis: Log CFU (Colony Forming Units) Cells/ml • x-axis: Time (HRS) • FIG. 1D: y-axis: Log CFU (Colony Forming Units) Cells/ml • x-axis: Time (HRS) • FIG. 1E: y-axis: Log CFU (Colony Forming Units) Cells/ml • x-axis: Time (HRS) • FIG. 1F: y-axis: Log CFU (Colony Forming Units) Cells/ml • x-axis: Time (HRS) • FIG. 5A: y-axis: % Inhibition • x-axis Concentration μg/ml • FIG. 5B: y-axis: % Inhibition • x-axis Concentration μg/ml

[6] = system: Enterococcus faecalis ATCC 29212; test: kinetics of growth at sub-MIC concentrations (FIG. 1C); assay type: cell-based; settings: E. faecalis ATCC 29212; 4 or 16 μg/ml; four hours following cultivation
Description: as §1

[7] = system: Enterococcus faecium VRAR E315; test: kinetics of growth at sub-MIC concentrations (FIG. 1D); assay type: cell-based; settings: E. faecium E315; 4 or 16 μg/ml; four hours following cultivation
Description: as §1

[8] = system: S. aureus MRSA 3; test: electron microscopy of cell division (FIG. 2); assay type: cell-based, Staphylococcus aureus; settings: 16 μg/ml, 4 hours shake culture
Procedure: FIGS. 2 a), b) and c) are electron microscope photographs of S. aureus MRSA 3 after 4 hours growth without antibiotic and d), e) and f) in the presence of 16 μg/ml 7-O-malonyl macrolactin A;
It is thought that 7-O-malonyl macrolactin A inhibits the division of bacterial cells, which interrupts the proliferation thereof.
7-O-malonyl macrolactin A influences cell division in MRSA 3, which is evident from the altered division planes. […] The large black arrowheads (FIGS. 2e) and f)) indicate the division planes, while the small black arrowheads indicate an asymmetrical initiation of cell division.

[9] = system: L929 mouse fibroblast cells; test: inhibition of proliferation, CyQUANT cell proliferation test; assay type: cell-based; settings: Mus musculus, L929, 120 h, 5 days
Procedure: (§2) The cytotoxicity of 7-O-malonyl macrolactin A was compared to that of 7-O-succinyl macrolactin A and macrolactin A in vitro with respect to the inhibition of the proliferation of L929 mouse fibroblast cells or the human epithelial cell line HeLa.
(§3) For the cell culture, the HeLa cells were cultivated in low-glucose DMEM medium (Gibco), and the L929 cells in high-glucose DMEM medium. Both were supplemented with 10% by volume foetal calf serum (Gibco) at 37° C. in an atmosphere containing 5% CO2. The cells were extracted from stock cultures by means of trypsinization with EDTA (HeLa) or without EDTA (L929), then counted and diluted to 2×10^5 cells/ml. For the tests, microtitre plates (Nunc.) comprising 96 depressions were plated out in serial dilution without or in the presence of the test compounds or methanol. Determination of morphological alterations of the cells was carried out by means of phase contrast microscopy after 1, 2 and 5 days incubation.
(§4) After 5 days cultivation, cell counts were determined by the CyQUANT cell proliferation test (Molecular Probes), which is a highly sensitive microtitre plate test based on fluorescence. The test employs the dye CyQUANT, which, by binding to cellular nucleic acids, enhances fluorescence, which can then be measured by fluorescein excitation. The emission of fluorescence by the dye-nucleic acid complex correlated linearly with the cell count. For test purposes, the residue was carefully removed after 5 days incubation, the cells washed with PBS (phosphate buffered saline solution), the buffer removed and the cells frozen at −80° C. For the test, the cells were thawed at ambient temperature and lysated in a buffered solution containing the dye CyQUANT, in accordance with manufacturer's instructions. Fluorescence was measured by means of a fluormetric microtitre-plate reader (Titertex Fluorskan II) (excitation at 480 nm, emission at 520 nm). The […] were used to calculate the percentage of cellular proliferation in medium both alone and in the presence of serial dilutions of methanol and the macrolactin compounds. […] Proliferation was measured by means of the fluorescence-based test CyQUANT for determining viable cell counts. Table 5 illustrates the relative inhibition of proliferation as compared to a control culture comprising fresh medium without the addition of a macrolactin.

[10] = system: human epithelial cell line HeLa; test: as above; assay type: cell-based
Procedure: as §2, §3, §4

[11] = system: bacteria, especially gram-positive bacteria; test: bacteriostatic activity, general statement; assay type: cell-based; settings: very low concentrations
Procedure: 7-O-malonyl macrolactin A is antibiotically active against bacteria, especially gram-positive bacteria and is, in particular, advantageously bacteriostatic at very low concentrations, for example, in the region of 0.05-4 μg/ml. […] The bacteriostatic activity of 7-O-malonyl macrolactin A has already been observed at weak concentrations, as compared to the prior art macrolactin A, even where there has been no direct or immediate bactericidal effect at such low concentrations.

CC1CCC/C=C/C=C/C(O)CC(O)C/C=C\C=C\C(OC(=O)CC(=O)O)C/C=C/C=C\C(=O)O1 (centres unmarked) [7-O-malonyl macrolactin A]
MIC (minimal inhibitory concentration) [1]: >128 µg/mL
MBC ([1]; Staphylococcus aureus, pronounced inhibition of growth, read-out: MBC (minimal bacteriostatic or fungistatic concentration)): 4 µg/mL (≈ 8.19 µM)
MIC ([1]; Staphylococcus aureus, read-out: MIC (minimal inhibitory concentration)): > 128 µg/mL
MIC (minimal inhibitory concentration) ([2]; E. faecalis ATCC 29212): 128 µg/mL (≈ 262 µM)
MBC ([2]; Enterococcus faecalis, ATCC29212, E. faecalis ATCC 29212, read-out: MBC (minimal bacteriostatic or fungistatic concentration)): 4 µg/mL (≈ 8.19 µM)
MIC ([2]; Enterococcus faecalis, ATCC29212, E. faecalis ATCC 29212, read-out: MIC (minimal inhibitory concentration)): > 128 µg/mL
MBC (minimal bacteriostatic or fungistatic concentration) [3]: not observed
MIC (minimal inhibitory concentration) [3]: >128 µg/mL
MIC ([3]; Burkholderia cepacia, read-out: MIC (minimal inhibitory concentration)): > 128 µg/mL
MBC ([4]; DSM6128, read-out: MBC (minimal bacteriostatic or fungistatic concentration)): 32 µg/mL (≈ 65.5 µM)
MIC ([4]; DSM6128, read-out: MIC (minimal inhibitory concentration)): > 128 µg/mL
effect on kinetics of growth ([5]; far below the MIC, first 4 hours): kills off this bacterium within the first 4 hours following dosage
growth reduced by a factor ([5]; subsequent cultivation time): 10
effect on kinetics of growth [6]: inhibited the growth
effect on kinetics of growth [7]: almost completely inhibited
effect on cell division, electron microscope [8]: disrupted cell division
inhibition at 3.9 µg/mL ([9]; compound concentration 3.9 μg/ml): 0%
inhibition at 7.8 µg/mL ([9]; compound concentration 7.8 μg/ml): 0%
inhibition at 15.6 µg/mL ([9]; compound concentration 15.6 μg/ml): ~32%
inhibition at 31.25 µg/mL ([9]; compound concentration 31.25 μg/ml): 80%
inhibition at 56.5 µg/mL ([9]; compound concentration 56.5 μg/ml): 86%
inhibition at 125 µg/mL ([9]; compound concentration 125 μg/ml): 84%
Inhibition of proliferation ([10]; 62.5 μg/ml, CyQUANT test): practically complete inhibition of growth
inhibition at 3.9 µg/mL ([10]; Homo sapiens, 120 h, compound concentration 3.9 μg/ml, 5 days): 0%
inhibition at 7.8 µg/mL ([10]; Homo sapiens, 120 h, compound concentration 7.8 μg/ml, 5 days): 0%
inhibition at 15.6 µg/mL ([10]; Homo sapiens, 120 h, compound concentration 15.6 μg/ml, 5 days): 0%
inhibition at 31.25 µg/mL ([10]; Homo sapiens, 120 h, compound concentration 31.25 μg/ml, 5 days): 62%
inhibition at 56.5 µg/mL ([10]; Homo sapiens, 120 h, compound concentration 56.5 μg/ml, 5 days): 93%
inhibition at 125 µg/mL ([10]; Homo sapiens, 120 h, compound concentration 125 μg/ml, 5 days): 100%
Inhibition of proliferation ([10]; compound concentration 15.6 μg/ml, 5 days): failed to inhibit the proliferation
Inhibition of proliferation ([10]; compound concentration 31.25 μg/ml, 5 days): capable of inhibiting the proliferation
bacteriostatic concentration [11]: 0.05 to 4 µg/mL
